# From patent publication US20100197625A1, “SYNTHETIC LIPOPHILIC INOSITOL GLYCANS FOR TREATMENT OF CANCER AND GLUCOSE-METABOLISM DISORDERS” (priority 2006, published 2010)
# Entries after “also recorded” stand apart in the source; their conditions may differ.
# How the values were obtained:
# [1] = test system: human neuroblastoma (SH-SY5Y); assay: Cell proliferation / cell death assay, SH-SY5Y; format: cell-based; details: 10-100 μM
# Protocol: (§1) Human pancreatic cancer cell lines (Panc-1, MiaPaca2, BXPC3, Aspc 1), human hepatoma cell line (HuH7), human gastric cancer cell lines (AGS, MKN45), human colon cancer cell line (CoCM-1), human mammary cancer cell line (MCF-7), human neuroblastoma (SH-SY5Y), human prostate cancer cells (PC3), and murine Ehrlich ascites cancer cells and mouse 3T3-L1 fibroblasts were obtained from American Type Culture Collection (Rockville, Md., USA). The cancer cells were cultured in RPMI 1640 containing 10% fetal calf serum. Cultures were maintained at 37° C. in a humidified atmosphere of 5% CO2.
# (§2) Cell proliferation assays were performed with the CellTiter 96 AQueous One Solution Cell Proliferation Assay kit according to the manufacturer's instructions (Promega, Madison, Wis., USA). Briefly, 5×10^3 cells/well in medium were placed onto 96-well plates. IGs were added to cellular cultures at final concentrations of 0, 1, 10, and 100 μM. […] of CellTiter 96 AQueous One Solution Reagent, which contains a tetrazolium compound, 3-(4,5-dimethylthiazol-2-yl)-5-(3-carboxymethoxyphenyl)-2-(4-sulfophenyl)-2H-tetrazolium, an inner salt; MTS was added to the culture medium. After incubating the plate for 1 h in a CO2 incubator, absorbance at 490 nm was recorded with a 96-well plate reader.
# native rat adipocytes = assay: Lipogenesis in native rat adipocytes; format: cell-based; details: rat isolated adipocytes
# Protocol: Adipocytes were isolated from epididymal fat pads dissected from freshly sacrificed male Long-Evans rats and incorporation of [6-^3H]-glucose into triglycerides in response to treatment with inositol glycans or insulin was measured as previously described (Chakraborty, N. and M. d'Alarcao, Bioorganic & Medicinal Chemistry 13 (2005) 6732-6741).
# [2] = test system: human colon cancer cells (CoCM-1); assay: Cell proliferation / cell death assay, CoCM-1; format: cell-based; details: CoCM-1, 10-100 μM
# Protocol: as §1
# (§3) Cell proliferation assays were performed with the CellTiter 96 AQueous One Solution Cell Proliferation Assay kit according to the manufacturer's instructions (Promega, Madison, Wis., USA). Briefly, 5×10^3 cells/well in medium were placed onto 96-well plates. IGs were added to cellular cultures at final concentrations of 0, 1, 10, and 100 μM. Cultures were incubated for 3 days or 7 days and then added to 20 μL/well of CellTiter 96 AQueous One Solution Reagent, which contains a tetrazolium compound, 3-(4,5-dimethylthiazol-2-yl)-5-(3-carboxymethoxyphenyl)-2-(4-sulfophenyl)-2H-tetrazolium, an inner salt; MTS was added to the culture medium. After incubating the plate for 1 h in a CO2 incubator, absorbance at 490 nm was recorded with a 96-well plate reader.
# [3] = test system: db/db, obese-diabetic mice; assay: Intravenous administration of IG1, db/db mice; format: in vivo
# Protocol: (§4) Male C57BL/6 mice were housed individually and given free access to a standard diet (65% carbohydrate, 4% fat, and 24% protein) or a high-fat diet (Quick Fat; 60.2% carbohydrate, 15.3% fat, and 24.5% protein; Clea Japan, Tokyo, Japan), starting at 5 weeks of age, for 5 weeks. Db/db mice also were housed individually and given free access to a standard diet. C57BL/6 mice at 5 weeks of age, were received a single dose of 75 μg/g body weight streptozotoxin (STZ). 7 days after injections, the mice, whose fasting plasma glucose concentrations were over 400 mg/dl, were used as STZ-diabetic mice. […]
# (§5) Frozen livers were homogenized, and triglycerides were extracted with CHCl3:CH3OH (2:1, vol:vol), dried and resuspended in 2-propanol (17). Triglyceride contents were measured using Lipidos liquid (TOYOBO, Osaka, Japan). […] Glycogen content was determined by the phenol-sulfuric acid spectrophotometric method at 490 nm (18) and expressed as micrograms of glycogen per milligram of liver.
# (§6) Blood glucose was assayed with Glucose Ace (Sanwa Kagaku Kenkyusho, Nagoya, Japan). Serum insulin and leptin were determined with ELISA kits (Morinaga Institute of Biological Science, Yokohama, Japan). Serum adiponectin and tumor necrosis factor-α (TNF-α) concentrations were measured with an ELISA kit (Ohtsuka Pharmaceutical, Tokyo, Japan) and a TNF-α assay kit (Amersham Biosciences, Uppsala, Sweden), respectively. […]
# Panc-1 cells [4] = assay: Cell proliferation / cell death assay, Panc-1; format: cell-based, human
# Protocol: as §1, §2
# [5] = test system: streptozotocin (STZ)-diabetic mice; assay: Intravenous administration of IG1, STZ-diabetic mice; format: in vivo
# Protocol: as §4, §5, §6
# [6] = test system: human mammary cancer cells (MCF-7); assay: Cell proliferation / cell death assay, MCF-7; format: cell-based; details: MCF-7, 10-100 μM
# Protocol: as §1, §3
# Panc-1 cells [7] = assay: ATP contents in Panc-1 cells; format: cell-based, human; details: 1 hour incubation in serum free media
# Protocol: as §1
# db/db mice = assay: Intraperitoneal IG1 for 7 days, db/db mice; format: in vivo; details: intraperitoneal for every 7 days, data not shown
# Protocol: as §4, §5, §6
compound,measurement,setting,value
"CCCCCCCCCCCCCCCC(=O)O[C@@H]1C(O)C(O)[C@H](O)C(O[C@H]2OC(CO)[C@@H](O)[C@H](O)C2N)C1O (stereo in doubt) [IG1, 2-Amino-2-deoxy-α-D-glucopyranosyl-(1→6)-2-palmitoyl-D-myo-inositol]",rapid cancer cell death,[1],rapid cancer cell death was demonstrated
same,EC50,"native rat adipocytes; Adipocyte, fit to receptor binding model, read-out: EC50 value for stimulation of lipogenesis",14 µM
same,Emax,"native rat adipocytes; Adipocyte, stimulation of lipogenesis, read-out: Amax (maximal effect)",24%
same,stimulation of lipogenesis,native rat adipocytes; concentration series,stimulated lipogenesis
same,rapid cancer cell death,[2],rapid cancer cell death was demonstrated
same,hepatic and muscular glycogen synthesis,[3]; data not shown,increases hepatic and muscular glycogen synthesis
same,plasma glucose concentrations,[3]; intravenous,reduced plasma glucose concentrations
same,cell death,"Panc-1 cells [4]; Panc-1, 1 hour after addition, 10-100 μM",induced very rapid cell death; also recorded: induced rapid cell death
same,cell death,"Panc-1 cells [4]; Panc-1, after 24 hours",induced rapid cell death
same,cell death,"Panc-1 cells [4]; Panc-1, after 3 days (72 hours)",induced rapid cell death
same,hepatic and muscular glycogen synthesis,"[5]; STZ-diabetic mice, data not shown",increases hepatic and muscular glycogen synthesis
same,plasma glucose concentrations,"[5]; intravenous, 0.3 mg per mice, 120-300 min after administration",significantly reduced plasma glucose concentrations
same,rapid cancer cell death,[6],rapid cancer cell death was demonstrated
same,ATP contents,Panc-1 cells [7],does not affect ATP contents
same,glucose tolerance,db/db mice,improves glucose tolerance
same,hepatic and muscular glycogen synthesis,db/db mice,increases hepatic and muscular glycogen synthesis
